Test results published in article PMC6270099, “Synthesis, Biological Evaluation, and Pharmacokinetic Study of Novel Liguzinediol Prodrugs” (Molecules, 2013).
Like-named read-outs stand apart in the source and are kept apart here. Marks after values point to notes of the source that are not given here.

Legend:
[1] = test system: isolated Langendorff-perfused rat hearts; test: Ex vivo Langendorff-perfused rat heart, cardiac performance; details: for ∆% +dP/dtmax / ∆% LVDP / ∆% −dP/dtmax: increase vs. control; for LVDP: isolated rat heart, mean ± SD, n = 6
Experimental: The cardiac contractility and safety of prodrugs 3–5 were evaluated on the myocardium in normal isolated rat hearts with LZDO as a positive control. Prodrugs 3–5 exerted positive inotropic effects in a dose-dependent manner. The increased rate in left ventricular developed pressure (LVDP, accepted as contractile force), +dP/dtmax (used as an index of contractility), the maximum rate of pressure decrease of the left ventricle ([…], used as an index of diastolic function) and the heart rate (HR, used as an index of heart muscle oxygen consumption) of these compounds vs. control are listed in Table 1.
All commercial reagents and solvents were used without further purification unless otherwise specified. Melting points were determined using a model Buchi B-450 apparatus. ESI-MS were recorded on a TOF mass spectrometer (Applies-Biosystem Mariner). IR spectra were acquired by using a THERMO IR spectrometer Model Nicolet-100. ^1H- and ^13C-NMR spectra (500/125 MHz) were recorded on a Bruker Advance 500 spectrophotometer. Mass spectra were recorded on a ZAB-HS mass spectrometer and are reported as m/z values. HPLC analysis was conducted on a Waters 2695 HPLC instrument equipped with a UV detector (model 2489). LZDO and prodrugs 3–5 were analysed by HPLC, and their purity was confirmed to be greater than 98.0%. In vitro metabolic stability analysis was conducted by a HPLC method, using stock standard solutions of LZDO and prodrugs that were prepared in water at a concentration of 30 mM. The positive inotropic effects on the myocardium of LZDO and prodrugs 3–5 in vitro were evaluated on Langendorff-perfused hearts isolated from normal Sprague-Dawley rats. A HPLC method was applied to measure the rat plasma concentrations of LZDO and prodrug 3 after intragastric administration of prodrug 3 in the rats.
Sprague-Dawley adult male rats weighing 260–320 g were anaesthetised by intraperitoneal administration of 20% urethane (1.2 g/kg). The hearts were quickly removed and placed into an ice-cold modified buffer until contractions ceased. The heart was cleaned of surrounding tissues, mounted on the aortic cannula of the Langendorff perfusion system apparatus, and perfused with oxygenated buffer (mM): NaCl 117, KCl 5.7, CaCl2 1.8, MgCl2 1.7, NaHCO3 4.4, NaH2PO4 1.5, HEPES 20 and glucose 11. The buffer was equilibrated with 95% O2 and 5% CO2 and adjusted to pH 7.4 with NaOH before it entered the heart. An epicardial electrogram was registered using two stainless steel electrodes, one attached to the apex of the heart and the other to the aortic cannula. To obtain an isovolumetrically beating preparation, a latex balloon filled with water and connected by a catheter to a transducer was inserted through the left atrium into the left ventricle and inflated to provide an end-diastolic pressure between 8 and 12 mm Hg. Before each experimental protocol was initiated, the isolated hearts were set at a mean arterial pressure of 60–80 mm Hg and allowed to stabilise at 37 °C for 40–60 min. The isolated rat hearts were then perfused in sequence with 1, 10, and 100 μM of LZDO and prodrugs 3–5 in each group. A RM6240B/C four channel physiological recording instrument (Chengdu Instrument Factory, Chengdu, China) was used for continuous recording of LVSP, LVEDP, HR (derived from electrogram), +dP/dtmax and −dP/dtmax throughout the experiments. The criteria for established stability were LVDP > 50 mmHg, +dP/dtmax > 1,600 mmHg·s^−1, heart rate > 180 beats·min^−1 and normal sinus rhythm. The hearts were not studied if they had weak contractility (+dP/dtmax < 1,600 mmHg·s^−1) and severe arrhythmia. Diastolic balloon pressure was maintained at 8 mmHg. LVDP was calculated as the difference between the systolic and diastolic pressures. The results are expressed as the mean value of hemodynamic variables (n = 6). Statistical analysis was performed using SPSS for Windows (version 13.0). Data were analyzed by One-way ANOVA. […]

[2] = design: method as in earlier work; details: cited from earlier work; for AUC0–t / AUC0–∞ / Cmax / Tmax / t1/2: rat
[3] = In vitro physiological stability and formation of parent compound in rat plasma; format: in vitro ADME; details: 37 °C, up to 3 h
Experimental: Analysis was performed by using a Waters Alliance HPLC system (2695 pump, and 2489 PDA detector) with the following chromatographic parameters: wavelength, 278 nm; injection volume, 20 μL; run time, 20 min. The chromatographic separation was performed on an Phecda C18 (4.6 mm × 250 mm, 5 μm) column with a gradient elution of methanol and deionized water. Flow rate was 1.0 mL/min at 30 °C.
Rat plasma was harvested from in-house rats. Fresh blood was collected from the male rat using a retro-orbital bleeding method in a tube containing heparin (100 IU/mL blood). After the collection of blood, plasma was separated from the blood by centrifugation at 5,000 rpm for 10 min. The supernatant plasma was separated and utilized for the further experiment.
The test compound in aqueous solution 30 mM (20 μL) was dissolved in rat plasma (980 μL). Immediately after addition (0 min), aliquots (100 μL) were removed and added to ice cold dissolvent (ethanol-ethyl acetate = 1:4 v/v, 1 mL) and mixed well by vortexing for 2 min. The mixture was centrifuged at 12,000 rpm for 10 min, and the supernatant was diluted with methanol and analyzed by HPLC. After 0 min, the remaining sample was incubated at 37 °C for 1, 2, and 3 h. […]

## Cc1nc(CO)c(C)nc1CO [1a, Liguzinediol]
[1]; 1 μM
  +dP/dtmax: 1,836 ± 121 mmHg/s
  HR: 186 ± 29 beat·min^−1
  −dP/dtmax: −1,175 ± 125 mmHg/s
  ∆% +dP/dtmax: 9.4 ± 8.1%
  ∆% LVDP: 19.4 ± 11.0%
  ∆% −dP/dtmax: 11.1 ± 10.0%
  LVDP: 60 ± 5 ^b mmHg
[1]; 10 μM
  +dP/dtmax: 2,125 ± 242 ^bc mmHg/s
  HR: 209 ± 21 beat·min^−1
  −dP/dtmax: −1,371 ± 186 ^bc mmHg/s
  ∆% +dP/dtmax: 26.5 ± 13.4%
  ∆% LVDP: 45.6 ± 9.0%
  ∆% −dP/dtmax: 30.3 ± 0.3%
  LVDP: 73 ± 4 ^bd mmHg
[1]; 100 μM
  +dP/dtmax: 2,702 ± 287 ^bdf mmHg/s
  HR: 193 ± 15 beat·min^−1
  −dP/dtmax: −1,911 ± 200 ^bdf mmHg/s
  ∆% +dP/dtmax: 60.9 ± 17.3%
  ∆% LVDP: 76.3 ± 12.3%
  ∆% −dP/dtmax: 82.0 ± 27.9%
  LVDP: 88 ± 3 ^bdf mmHg
[2]; LZDO 10 mg·kg^−1 i.g.
  AUC0–t: 16740 ± 8900 ng·h/mL
  AUC0–∞: 17080 ± 8990 ng·h/mL
  Cmax: 8580 ± 2660 ng/mL
  Tmax: 0.29 ± 0.10 h
  t1/2: 2.21 ± 1.11 h
[2]; LZDO 20 mg·kg^−1 i.g.
  AUC0–t: 34840 ± 24640 ng·h/mL
  AUC0–∞: 35930 ± 24080 ng·h/mL
  Cmax: 17020 ± 5500 ng/mL
  Tmax: 0.29 ± 0.10 h
  t1/2: 2.57 ± 2.14 h
[2]; LZDO 50 mg·kg^−1 i.g.
  AUC0–t: 92850 ± 64100 ng·h/mL
  AUC0–∞: 94820 ± 66880 ng·h/mL
  Cmax: 49330 ± 10500 ng/mL
  Tmax: 0.29 ± 0.10 h
  t1/2: 1.78 ± 0.57 h
[2]; after intragastric administration, rats
  half-life: about 2 h
[3]
  metabolic stability: fairly stable
